Earlier results on 1 sequence are cited in paper PMC8875074, “Development of Bactericidal Peptides against Multidrug-Resistant Acinetobacter baumannii with Enhanced Stability and Low Toxicity” (International Journal of Molecular Sciences, 2022).

For this series the following is noted: cited from earlier work. The source says: A pair of test peptides, TP2-5 and TP2-6, were selected from a previous design based on tilapia piscidin 2 (TP2). […] Both TP2-5 and TP2-6 are nonhaemolytic and noncytotoxic an ...

Regarding “GECIWDAIFHGAKHFLHRLVNP [TP2, tilapia piscidin 2]”, the antimicrobial activity result is given as “without antimicrobial activity” and the net positive charge result is “negligible or no net positive charge”.
